≈ marks a conversion by molar mass, not a printed value. Read-outs that look alike come from different tables or passages of the source.
Experiments:
[1] = Octanol-phosphate partition coefficient; format: physicochemical; details: for logD at 24 h: octanol/0.2 m phosphate buffer; for partition coefficient: average of 1.4 times and 0.7 times; for partition coefficient / partition coefficient at 0.7 times the solubility in octanol / partition coefficient at 1.4 times the solubility in octanol: 1440 min; for partition coefficient at 0.7 times the solubility in octanol / partition coefficient at 1.4 times the solubility in octanol: octanol/0.2 mol phosphate buffer pH 7.4, 20° C.; for partitioning toward the octanol layer: octanol-phosphate, pH 7.4
Procedure: The partition coefficient in the octanol-phosphate buffer solution system, which is indicative of the degree of orientation toward nerve tissues, was determined. […] To the weighed samples 10 ml of 0.2 mol phosphate buffer (pH 7.4), defined in the Pharmacopoeia of Japan, and 10 ml of octanol were added. The mixtures were shaken for 24 hours at 20° C. under light shielding. Octanol and phosphate layers were partitioned to determine the absorbance of each layer. […] The partition coefficients obtained were averaged to determine the partition coefficient of each sample.

[2] = Acute toxicity test (LD50/14), i.v. or i.p.; details: mouse, in vivo
Description: Test compounds, dissolved in physiological saline or a physiological saline solution containing 10% DMSO, were intravenously or intraperitoneally injected to ICR male mice, aged 5 weeks.

[3] = system: breast carcinoma cell EMT6/KU; assay: In vitro hypoxic cell sensitization effect (colony formation, gamma-ray); format: cell-based, Balb/c mouse; details: 1 mM test compound, EMT6/KU hypoxic cells, ratio of radiation amounts without/with compound
Procedure: The degree of the hypoxic cell radiosensitization effects of optical isomers of the present invention as compared with the racemate was studied by the in vitro assay.
Specifically, the radiosensitization effects were investigated using breast carcinoma cell EMT6/KU derived from Balb/c mouse. A hypoxic cell suspension was prepared from MEM suspension-containing EMT6/KU cells at a concentration 4×10^5 cells/ml by adding the test compound to a final concentration of 1 mM, and gently shaking it under a nitrogen gas stream containing 5% CO2 for one hour at room temperature. Gamma-ray was irradiated to the suspension and a radiation-survival rate curve was developed by the colony formation method. The sensitization rate was determined from this radiation-survival rate curve by dividing (i) the amount of radiation which decreases the survival rate of the hypoxic cells by 1% when no test compound was added by (ii) the amount of radiation which decreases the survival rate of the hypoxic cells by 1% when the test compound was added.

[4] = system: EMT6/KU-cancerated Balb/c mouse; assay: In vivo-in vitro hypoxic cell sensitization effect (EMT6/KU tumour-bearing mouse, gamma-ray, colony forming method); details: 200 mg/kg; 20 Gy gamma-ray 30 minutes thereafter
Procedure: The degree of the hypoxic cell radiosensitization effects of optical isomers of the present invention in in vivo-in vitro system was investigated in the same manner using the racemate as a control. Specifically, the radiosensitization effects were investigated using EMT6/KU-cancerated Balb/c mouse. 200 mg/kg of each test compound was administered and 20 Gy gamma-ray was irradiated 30 minutes thereafter. Carcinoma was extracted and treated with trypsin to prepare a cell suspension. The survival rate was determined by the colony forming method. A physiological saline solution was administered to the control.

[5] = Dissolution test (solubility); format: physicochemical; details: for solubilities compared with SR-RS racemate: water and physiological saline
Procedure: Solubilities of SS, RR, SR, and RS isomers and SR-RS racemate in water and physiological saline were determined.

[6] = system: hypoxic cell; details: cited from earlier work
[7] = system: male ICR mice; details: mouse, in vivo, iv
Procedure: The acute toxicity was determined using groups of male ICR mice, aged 5 weeks, each group consisting of five mice. Test compounds were dissolved in physiological saline and administered by injection through caudal vein. The death-survival determination was made 14 days after the administration.

[8] = pH 7.4, average of 1.4 times and 0.7 times, pH 7.4, 20° C., read-out: partition coefficient (converted)
[9] = pH 7.4, octanol/0.2 mol phosphate buffer pH 7.4, 20° C., 24 hours, 0.7 times, read-out: partition coefficient at 0.7 times the solubility in octanol (converted)
[10] = pH 7.4, octanol/0.2 mol phosphate buffer pH 7.4, 20° C., 24 hours, 1.4 times, read-out: partition coefficient at 1.4 times the solubility in octanol (converted)
[11] = intravenously or intraperitoneally, ICR male mice, 14 days
[12] = physiological saline, read-out: Solubility in physiological saline
[13] = water, read-out: Solubility in water

Compound	logD at 24 h [1, 8]	logD at 24 h [1, 9]	logD at 24 h [1, 10]	Hypoxic cell sensitization rate [3]	Hypoxic cell survival rate [4]	solubility [5, 12]	solubility [5, 13]	solubilities compared with SR-RS racemate [5]	further results
COCC(O)Cn1ccnc1[N+](=O)[O-] (stereo not drawn) [Misonidazole, reference compound]	-0.409	-0.397	-0.423	–	–	–	–	–	–
O=[N+]([O-])c1nccn1CO[C@H](CO)[C@@H](O)CO [Compound (3)]	–	–	–	–	–	–	–	–	LD50 at 336 h [2, 11]: 5900 mg/kg
O=[N+]([O-])c1nccn1CO[C@H](CO)[C@@H](O)CO (relative stereo) [SR-RS racemate, (1'RS,2'SR)-1-[(2',3'-dihydroxy-1' -hydroxymethyl)propoxy]methyl-2-nitroimidazole]	-1.33	-1.24	-1.43	1.7	0.08%	40 mg/mL (≈ 162 mM)	40 mg/mL (≈ 162 mM)	–	hypoxic cell radiosensitization effect compared with misonidazole [6]: about the same degree of hypoxic cell radiosensitization effect as misonidazole
O=[N+]([O-])c1nccn1COC(CO)C(O)CO (single isomer, unassigned) [RS or SR isomer (rotation(-))]	–	–	–	1.7	0.08%	–	–	–	partition coefficient ([1]; pH 7.4, 20° C.): 0.053; partition coefficient at 0.7 times the solubility in octanol ([1]; 24 hours, 0.7 times): 0.058; partition coefficient at 1.4 times the solubility in octanol ([1]; 24 hours, 1.4 times): 0.048; Solubility in physiological saline ([5]; physiological saline): 0.06 g/ml
O=[N+]([O-])c1nccn1CO[C@H](CO)[C@@H](O)CO [RS isomer]	–	–	–	–	–	–	–	remarkably larger than that of SR-RS racemate	–
O=[N+]([O-])c1nccn1CO[C@@H](CO)[C@H](O)CO [Compound (4)]	–	–	–	–	–	–	–	–	LD50 at 336 h [2, 11]: 5900 mg/kg
O=[N+]([O-])c1nccn1COC(CO)C(O)CO (single isomer, unassigned) [RS or SR isomer (rotation(+))]	–	–	–	1.7	0.08%	70 mg/mL (≈ 283 mM)	–	–	partition coefficient ([1]; pH 7.4, 20° C.): 0.056; partition coefficient at 0.7 times the solubility in octanol ([1]; 24 hours, 0.7 times): 0.059; partition coefficient at 1.4 times the solubility in octanol ([1]; 24 hours, 1.4 times): 0.053
O=[N+]([O-])c1nccn1CO[C@@H](CO)[C@@H](O)CO [SS isomer, (1'S,2'S)-1-[(2', 3'-dihydroxy-1'-hydroxymethyl)propoxy]methyl-2-nitroimidazole]	-1.55	-1.51	-1.59	1.8	0.07%	820 mg/mL (≈ 3320 mM)	850 mg/mL (≈ 3440 mM)	remarkably larger than that of SR-RS racemate	partitioning toward the octanol layer [1]: less partitioned toward the octanol layer; safety compared with other optically active isomers [7]: better safety than other optically active isomers; LD50 at 336 h [2]: 6000 mg/kg
O=[N+]([O-])c1nccn1CO[C@H](CO)[C@H](O)CO [RR isomer, (1'R,2'R)-1-[(2', 3'-dihydroxy-1'-hydroxymethyl)propoxy]methyl-2-nitroimidazole]	-1.6	-1.59	-1.62	1.8	0.07%	870 mg/mL (≈ 3520 mM)	740 mg/mL (≈ 2990 mM)	remarkably larger than that of SR-RS racemate	partitioning toward the octanol layer [1]: less partitioned toward the octanol layer; LD50 at 336 h [2]: 6000 mg/kg
O=[N+]([O-])c1nccn1CO[C@@H](CO)[C@H](O)CO [SR isomer]	–	–	–	–	–	–	–	remarkably larger than that of SR-RS racemate	–

Reference: patent publication US5532380A, “R,R,S,S-2-nitroimidazole derivatives” (Pola Chemical Industries, Inc., priority 1992, dated 1996)
